Broadly, the melting point is the temperature of the solid-liquid transition.

One data set addresses T1, hPPARβ (Homo sapiens, UniProt Q03181).
T1 sequence (Q03181 171-441 limits assumed): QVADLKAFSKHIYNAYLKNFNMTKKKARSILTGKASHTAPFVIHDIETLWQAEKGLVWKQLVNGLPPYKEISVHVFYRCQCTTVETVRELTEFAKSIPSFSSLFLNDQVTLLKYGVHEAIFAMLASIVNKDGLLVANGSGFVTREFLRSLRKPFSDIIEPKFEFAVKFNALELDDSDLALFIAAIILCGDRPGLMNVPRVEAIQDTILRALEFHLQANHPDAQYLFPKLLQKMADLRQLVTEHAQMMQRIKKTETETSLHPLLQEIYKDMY
Kind of data set: Transient transfection assay in HepG2 cells, Gal4-hPPARβ chimeric receptor, luciferase reporter. Type of data set: cell-based. The note with it: Hep G2-hBeta EC50, 24 hours incubation; read-out: EC50β nM (Group). The essentials: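 HepG2 cells were transiently co-transfected with Gal4-hPPARα or Gal4-hPPARβ chimeras, a UAS-E1B luciferase reporter and a β-gal normalisation plasmid. After re-plating, cells were treated with compound at 50 pM–50 μM for 24 h at 37°C. EC50 values were derived from luciferase read-out normalised to β-gal.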
(A reporter such as luciferase makes a cellular process visible.)

The target in a further data set is T2, hPPARα (Homo sapiens, UniProt Q07869).
T2 sequence (Q07869 200-468 limits assumed): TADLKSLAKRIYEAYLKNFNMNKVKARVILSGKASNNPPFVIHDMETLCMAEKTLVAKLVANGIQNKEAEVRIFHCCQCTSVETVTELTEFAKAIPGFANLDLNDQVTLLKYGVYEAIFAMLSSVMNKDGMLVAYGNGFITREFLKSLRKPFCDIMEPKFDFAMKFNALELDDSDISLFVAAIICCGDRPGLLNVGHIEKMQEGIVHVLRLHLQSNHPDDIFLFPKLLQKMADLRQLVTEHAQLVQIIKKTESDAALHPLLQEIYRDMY
Kind of data set: Transient transfection assay in HepG2 cells, Gal4-hPPARα chimeric receptor, luciferase reporter. Type of data set: cell-based. The note with it: Hep G2-hAlpha EC50, 24 hours incubation; read-out: EC50α nM (Group). On the procedure:
1. Test A. Transient Transfections Assay using the HepG2 Hepatoma Cell Line.
HepG2 cells were transiently transfected with an expression plasmids encoding hPPARα, hPPARβ or mPPARγ chimeric receptors and a reporter containing the yeast upstream activating sequence (UAS) upstream of the viral E1B promoter controlling a luciferase reporter gene. In addition, the plasmid pRSVβ-gal was used to control for transfection efficiency. HepG2 cells were grown in DMEM supplemented with 10% FBS and 1 μM non-essential amino acid. On the first day, cells were split into 100 mm dishes at 2.5×10^6/dish and incubated overnight at 37° C./5% CO2. On the second day the cells were transiently transfected with plasmid DNA encoding a chimeric receptor, the luciferase reporter gene; and β-gal. For each 100 mm dish, 15 μg of lucifease reporter (PG5E1b) DNA, 15 μg of Gal4-PPAR chimeric receptor DNA, and 1.5 μg of β-gal plasmid DNA were mixed with 1.4 ml of opti-MEM in the tube. 28 μl of LipoFectamine-2000 reagent was added to 1.4 ml of opti-MEM in the tube, and incubate for 5 min at RT. The diluted Lipofectamine-2000 reagent was combined with the DNA mixture, and incubate for 20 min at RT. After fresh medium was added to each 100 mm dish of cells, 2.8 ml of Lipofectamine2000-DNA mixture was added dropwise to the 100 mm dish containing 14 ml of medium, and incubate 37° C. overnight. On day three cells were trypsinized off the 100 mm dishes and re-plated on 96 well plates. Cells were plated at 2.5×10^4 cells per well in 150 μl of media and 50 μl of compound diluted by media was added. The test compound added were in the range from 50 μM to 50 pM. After addition of compounds, the plates were incubated at 37° C. for 24 hours. Subsequently cells were washed with once with 100 μl of PBS, lysed, and processed for measuring luciferase and β-gal activity using Dual-Light luciferase kit from Tropix ®, according to the manufacturer's recommendations, on an EG&G Bethold MicroLumat LB96P luminometer. EC50 values were obtained using the GraphPad Prism™ program.

Structures are written as SMILES.

As to `O=C(O)COc1ccc(SCc2ccc(OCc3ccc(Cl)c(C(F)(F)F)c3)cc2)c2c1CCC2` [Example 73, {7-[4-(4-Chloro-3-trifluoromethyl-benzyloxy)-benzylsulfanyl]-indan-4-yloxy}-acetic acid], the melting point was in the range of 151 to 152 °C. In addition, at hPPARβ, the EC50 was < 300 nM. The EC50 on hPPARα was in the range of 2000 to 5000 nM.

`O=C(O)COc1ccc(SCc2ccccc2OCc2ccc(C(F)(F)F)cc2)c2c1CCC2` [Example 81, {7-[2-(4-Trifluoromethyl-benzyloxy)-benzylsulfanyl]-indan-4-yloxy}-acetic acid] showed a melting point of 150 to 152 °C. Besides, on hPPARβ, the EC50 is < 300 nM. Moreover, the EC50 on hPPARα is > 5000 nM.

The compound `COc1cc(OCC(=O)O)c(C)cc1SCc1cccc(-c2cccc(OC(F)(F)F)c2)c1` [Example 16, [5-Methoxy-2-methyl-4-(3′-trifluoromethoxy-biphenyl-3-ylmethylsulfanyl)-phenoxy]-acetic acid] gave a melting point of 92 to 94 °C. The EC50 on hPPARβ was < 300 nM. Moreover, at hPPARα, the EC50 was < 300 nM.

Regarding `O=C(O)COc1ccc(SCc2ccc(OCc3ccc(F)c(C(F)(F)F)c3)cc2)c2c1CCC2` [Example 74, {7-[4-(4-Fluoro-3-trifluoromethyl-benzyloxy)-benzylsulfanyl]-indan-4-yloxy}-acetic acid], the melting point was in the range of 116 to 117 °C. Also, the EC50 on hPPARβ is < 300 nM. For the same compound, the EC50 at hPPARα lay in the range of 2000 to 5000 nM.

`Cc1cc(SCc2ccc(OCc3ccc(Cl)cc3Cl)cc2)ccc1OCC(=O)O` [Example 32, {4-[4-(2,4-Dichloro-benzyloxy)-benzylsulfanyl]-2-methyl-phenoxy}-acetic acid] had a melting point of 143 to 145 °C. In addition, at hPPARβ, the EC50 fell in the range of 300 to 500 nM. Besides, the EC50 at hPPARα fell in the range of 1000 to 2000 nM.

Take `COc1cc(OCC(=O)O)c(C)cc1SCc1ccc(-c2ccc(C(F)(F)F)cn2)cc1` [Example 18, {5-Methoxy-2-methyl-4-[4-(5-trifluoromethyl-pyridin-2-yl)-benzylsulfanyl]-phenoxy}-acetic acid]: the melting point was 225 °C (dec.). Besides, the EC50 on hPPARβ was < 300 nM. Also, at hPPARα, the EC50 is > 5000 nM.

With `COc1cc(OCC(=O)O)c(C)cc1SCc1ccc(/C=C/c2cccc(F)c2)cc1` [Example 29, (4-{4-[2-(3-Fluoro-phenyl)-vinyl]-benzylsulfanyl}-5-methoxy-2-methyl-phenoxy)-acetic acid], the melting point was 154 °C (dec.). Also, the EC50 at hPPARβ is < 300 nM. For the same compound, at hPPARα, the EC50 is < 300 nM.

`COc1cc(OCC(=O)O)c(C)cc1SCCc1ccc(-c2ccc(C(F)(F)F)cc2)cc1` [Example 23, {5-Methoxy-2-methyl-4-[2-(4′-trifluoromethyl-biphenyl-4-yl)-ethylsulfanyl]-phenoxy}-acetic acid] had a melting point of 169 to 171 °C. The EC50 on hPPARβ was < 300 nM. Besides, the EC50 on hPPARα was < 300 nM.

For `Cc1cc(SCc2ccc(OCc3ccc(F)cc3)cc2)ccc1OCC(=O)O` [Example 57, {4-[4-(4-Fluoro-benzyloxy)-benzylsulfanyl]-2-methyl-phenoxy}-acetic acid], the melting point was in the range of 154 to 155 °C. Further, at hPPARβ, the EC50 lay in the range of 2000 to 5000 nM. On hPPARα, the EC50 lay within 1000 to 2000 nM.

As to `O=C(O)COc1ccc(SCc2cc(-c3ccc(Cl)cc3)on2)c2c1CCC2` [Example 97, {7-[5-(4-Chloro-phenyl)-isoxazol-3-ylmethylsulfanyl]-indan-4-yloxy}-acetic acid], the melting point is 157 to 159 °C. In addition, the EC50 on hPPARβ was in the range of 500 to 1000 nM. Moreover, the EC50 at hPPARα is > 5000 nM.

On to `Cc1cc(SCc2ccc(-c3ccc(C(F)(F)F)cc3)cc2)c2c(c1OCC(=O)O)CCC2` [Example 28, [5-Methyl-7-(4′-trifluoromethyl-biphenyl-4-ylmethylsulfanyl)-indan-4-yloxy]-acetic acid], for which the melting point was determined as 177 °C. The EC50 on hPPARβ lay in the range of 1000 to 2000 nM. In addition, the EC50 on hPPARα lay in the range of 1000 to 2000 nM.

Regarding `O=C(O)COc1ccc(SCc2cccc(OCc3ccc(C(F)(F)F)cc3)c2)c2c1CCC2` [Example 79, {7-[3-(4-Trifluoromethyl-benzyloxy)-benzylsulfanyl]-indan-4-yloxy}-acetic acid], the melting point lay in the range of 145 to 146 °C. Besides, at hPPARβ, the EC50 was in the range of 300 to 500 nM. Besides, the EC50 at hPPARα is > 5000 nM.

`COc1ccc(COc2ccc(CSc3ccc(OCC(=O)O)c(C)c3)cc2)cc1` [Example 33, {4-[4-(4-Methoxy-benzyloxy)-benzylsulfanyl]-2-methyl-phenoxy}-acetic acid] yielded a melting point of 150 to 152 °C. At hPPARβ, the EC50 lay in the range of 1000 to 2000 nM. Also, the EC50 on hPPARα lay in the range of 1000 to 2000 nM.

For `Cc1cc(SCc2ccc(OCc3ccc(OC(F)(F)F)cc3)cc2)ccc1OCC(=O)O` [Example 35, {2-Methyl-4-[4-(4-trifluoromethoxy-benzyloxy)-benzylsulfanyl]-phenoxy}-acetic acid], the melting point was 141 to 142 °C. Further, at hPPARβ, the EC50 was in the range of 300 to 500 nM. The EC50 on hPPARα is < 300 nM.

For `COc1cc(OCC(=O)O)c(C)cc1SCc1ccc(-c2ccc(C(F)(F)F)cc2)nc1` [Example 19, {5-Methoxy-2-methyl-4-[6-(4-trifluoromethyl-phenyl)-pyridin-3-ylmethylsulfanyl]-phenoxy}-acetic acid], the melting point was 203 °C (dec.). In addition, the EC50 at hPPARβ was < 300 nM. Besides, at hPPARα, the EC50 is < 300 nM.

For `Cc1cc(SCc2ccc(OCc3ccc(F)cc3F)cc2)ccc1OCC(=O)O` [Example 31, {4-[4-(2,4-Difluoro-benzyloxy)-benzylsulfanyl]-2-methyl-phenoxy}-acetic acid], the melting point was 139 to 141 °C. For the same compound, the EC50 at hPPARβ was > 5000 nM. The EC50 at hPPARα was 1000 to 2000 nM.

The record behind these values is US6964983B2, “Compounds that modulate PPAR activity and methods for their preparation” (Warner-Lambert Company, LLC, priority 2002, dated 2005).
